Data from patent US20130310452A1, “ANTIFUNGAL FLAVOURING INGREDIENTS AND COMPOSITIONS” (FIRMENICH SA, priority 2011, published 2013).

Tested on: main fungi responsible for beverage and food spoilage (yeast and mould strains)
Test: Growth inhibition of yeast and mould strains in 105 g/L sucrose solution (OD after 21 days)
Type: cell-based
Protocol: The antifungal activity of various flavouring ingredients was evaluated against the following yeast strains: Zygosaccharomyces rouxii (DSM70835), Pichia membranaefaciens (DSM 70369), Dekkera Bruxellensis (DSM70726), Saccharomyces cerevisiae (DSM 70869) and Candida krusei (origin: Leatherhead Food Research) and against the following moulds strains: Byssochlamys nivea, Fusarium solani, Aspergillus fumigatis, Byssochlamys fulva, Aspergillus niger, Talaromyces Harzanium, Penicillium crustosum, Penicillium digitatum, Neosartorya fischeri, Penicillium roquerforti, Fusarium oxysporum.
A 105 g/L solution of sucrose in water at pH 3±0.2 was prepared. Another sucrose solution at the same concentration at pH 5±0.2 was also prepared. The sucrose solutions were autoclaved at 121° C. for 15 minutes and the pH was re-checked to ensure it remained within the range.
Test samples were then prepared in microtiter plates. An amount of 100 μL of sucrose solution prepared above, were mixed with an inoculum of 20 μL of one fungal strain, so as to achieve a microbial level comprised between 10^2 and 10^3 cfu/mL.
The flavouring ingredient or composition was then added to the microtiter plate. Dilutions were prepared in the microtiter plate for each mixture of sucrose solution and inoculum to afford final concentrations of 2000 ppm, 1000 ppm, 500 ppm, 250 ppm and 125 ppm of the ingredient or composition to be tested. One well for each mixture of sucrose solution and inoculum was kept free of flavouring ingredient or composition, to serve as a control.
The microtiter plates were then stored in a standard 25° C. incubator under aerobic conditions.
The optical density (OD) of each sample was measured after 21 days of incubation using a Bio-Tek Synergy™ HT Multi-Mode Microplate Reader (from Labtech International, UK). The wavelength was set to 380 nm for yeast strains and to 500 nm for mould strains. All tests were done in triplicate to ensure statistical relevance of the results.
The following tables indicate the OD measurements obtained when each flavouring ingredient or composition was used to inhibit growth of yeast and mould strains involved at concentration ranging between 0 and 2000 ppm. Measurements corresponding to efficient growth inhibition are indicated by grey cells in the tables below. Results were considered as evidence of efficient growth inhibition when the OD of the growth medium was below 0.2. OD measurements below 0.2 were not considered as sufficient evidence of the antifungal activity of a given flavouring ingredient or composition at a given concentration if OD measurements obtained with a higher concentration of such flavouring ingredient or composition were above 0.2.

[1] = sucrose solution at pH 3, concentrations of 1000 ppm or less, OD below 0.2 after 21 days at 25° C., 16 strains tested
[2] = sucrose solution at pH 5, concentrations of 1000 ppm or less, OD below 0.2 after 21 days at 25° C., 16 strains tested

SMILES	number of the main fungi responsible for beverage and food spoilage against which there is a strong antifungal effect [1]	number of the main fungi responsible for beverage and food spoilage against which there is a strong antifungal effect [2]	number of the main fungi responsible for beverage and food spoilage against which there is a strong antifungal effect (pH 3)	number of the main fungi responsible for beverage and food spoilage against which there is a strong antifungal effect (pH 5)
CC(=O)C=CCCC(C)C [7-methyl-3-octen-2-one]	6	11	–	–
C[C@@H]1CC[C@H]2[C@H](C)C(=O)O[C@@H]2C1 [(+)-(3S,3AS,6R,7AR)-perhydro-3,6-dimethyl-benzo[B]furan-2-one]	3	2	–	–
O=C(O)c1ccccc1O [salicylic acid]	12	14	–	–
Cc1ccc(C(C)C)cc1O [carvacrol]	15	14	–	–
CC(C)CC=C(C=O)c1ccccc1 [5-methyl-2-phenyl-2-hexenal]	–	–	9	5
CC(C)=CCCC(C)=CCCC(C)=CCO [farnesol]	2	–	–	–
CCCc1ccc(O)c(OC)c1 [dihydro eugenol]	15	15	–	–
CCCCCc1ccco1 [2-pentylfuran]	3	2	–	–
CCCCC(C)C(=O)O (stereo not drawn) [2-methylhexanoic acid]	15	16	–	–
CC1=CCC(=C(C)C)CC1 [terpinolene]	15	7	–	–
Cc1ccc(C(C)C)c(O)c1 [thymol]	4	–	–	–
COc1cc(C)cc(O)c1 [orcinyle, 3-methoxy-5-methylphenol]	2	–	–	–
